Results published in US8933107B2, “Pesticide thiazolyloxy substituted phenylamidine derivatives” (Bayer Cropscience AG, priority 2005, dated 2015).

Assays:
Heliotis virescens = Heliotis virescens test (HELIVI spray application); type: in vivo; conditions: soybean leaf sections, concentration and time not stated
physchem = conditions: reversed-phase HPLC column (C 18)
[1] = test system: Puccinia recondita f. Sp. tritici; experiment: In vivo preventive test on Puccinia recondita f. Sp. tritici (wheat brown rust); conditions: topical, 240 h, 1000 ppm of active ingredient, evaluated 10 days after inoculation, read-out: efficacy
[2] = test system: Erysiphe graminis f. sp. hordei; experiment: In vivo preventive test on Erysiphe gramini (powdery mildew on barley); conditions: Blumeria graminis, 168 h, 1000 ppm of active ingredient, evaluated 7 days after inoculation, read-out: efficacy
Podosphaera leucotricha = experiment: In vivo protective test on Podosphaera leucotricha (apples); conditions: topical, 240 h, 100 ppm of active ingredient, evaluated 10 days after inoculation, read-out: efficacy
Sphaerotheca fuliginea = experiment: In vivo protective test on Sphaerotheca fuliginea (cucumbers); conditions: Podosphaera fuliginea, 168 h, 100 ppm of active ingredient, evaluated 7 days after inoculation, read-out: efficacy
Alternaria solani = experiment: In vivo protective test on Alternaria solani (leaf spot of tomato); conditions: 168 h, 500 ppm of active ingredient, evaluated 7 days after inoculation, read-out: efficacy

chromatographic logP (physchem) | Compound | activity (mortality of eggs) (Heliotis virescens) | pest or weed control at 1000 ppm [1] [%] | pest or weed control at 1000 ppm [2] [%] | pest or weed control at 100 ppm (Podosphaera leucotricha) [%] | pest or weed control at 100 ppm (Sphaerotheca fuliginea) [%] | pest or weed control at 500 ppm (Alternaria solani) [%]
1.94 | Cc1cc(Oc2nc(Cl)c(C)s2)c(C)cc1/N=C/N(C)C(C)C [Compound 1.23] | good activity | ≥ 70 | ≥ 70 |  |  | 
2.22 | Cc1cc(Oc2nc(Cl)c(Br)s2)c(C)cc1/N=C/N(C)C(C)C [Compound 1.11] | good activity | ≥ 70 | ≥ 70 | ≥ 70 | ≥ 70 | 
2.57 | Cc1cc(Oc2nc(C(C)C)c(Cl)s2)c(C)cc1/N=C/N(C)C(C)C [Compound 1.9] |  | ≥ 70 | ≥ 70 | ≥ 70 | ≥ 70 | ≥ 70
